TGI and GI50 data for 13 compounds are collected here from PubChem BioAssay (NCI).

What all share (test): growth of human tumour cells (NCI), 48 h
Test [1] relates to A549 NSCLC.
Test [2] relates to HCT-15 colon.
For test [3], the system named is SN12C renal.
For test [4], the system named is SK-OV-3 ovarian.
Test [5] concerns HOP-62 NSCLC.
Test [6] deals with NCI-H226 lung.
Test [7] concerns OVCAR-5 ovarian.
In test [8] the test system is HCT-116 colon.
Test [9] concerns SK-MEL-28 melanoma.
The subject of test [10] is MDA-MB-435.

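The compound was tested at five concentrations on cells cultured in 96-well plates, with a 48-hour exposure period. GI50: concentration for 50% inhibition of growth. TGI marks complete inhibition of growth.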 Some results are limits rather than exact numbers.

In the case of `Nc1n[nH]c(CCc2nc(N)n[nH]2)n1`, the TGI in [1], in [2], in test [3], in [4], in test [5] and in [6] was greater than 100 µM each time. In addition, the TGI in [7], in [8] and in [9] was greater than 100 µM in each case.

With `O=C(Nc1ccn(CCI)c(=O)n1)c1ccccc1`, the TGI in test [1], in [2], in test [3], in [4], in test [5] and in test [6] was greater than 100 µM in each case. The TGI in test [7], in test [8] and in test [9] was greater than 100 µM in each case.

For `Cc1cc2c(C)n(Cc3ccc(Cl)cc3Cl)nc2c(C(=O)O)c1C`, the TGI in test [1], in test [2], in [3], in test [4], in [5] and in test [6] was greater than 100 µM in each case. In addition, the TGI in [7], in [8] and in test [9] was greater than 100 µM each time.

With `C=CS(=O)(=O)CCN1CC1`, the TGI in [1], in test [2], in test [3], in test [4], in test [5] and in test [7] was greater than 10 µM in each case. The TGI in test [8], in test [10] and in [9] was greater than 10 µM each time.

In the case of `CCN(CC)CCSCCCNc1c2ccc(Cl)cc2nc2ccc(OC)cc12`, the GI50 in [1] is 0.98 µM; in test [2] it was 0.433 µM; in test [3], 1.04 µM; in test [4], 1.56 µM; in test [5], 0.558 µM; in [7], 1.14 µM. The GI50 in test [8] was 0.488 µM; in test [10], 1.46 µM; in [9], 1.84 µM. The TGI in test [1] was determined as 3.03 µM; in test [2] it was 2.36 µM; in [3], 3.48 µM; in [4] it was 3.92 µM; in [5], 2.21 µM; in test [7], 4.39 µM. Besides, the TGI in test [8] stood at 2.07 µM; in test [10], 2.89 µM; in test [9] it was 3.8 µM.

On to `COC(=O)C1=C(c2ccc3c(c2)OCO3)OC(c2cc(OC)c(OC)c(OC)c2)C1` (stereo not given), for which the TGI was greater than 100 µM in [1]; 15.2 µM in test [2]; greater than 100 µM in [3]; 8.09 µM in test [4]; greater than 100 µM in test [5]; greater than 100 µM in [6]. Besides, the results for the TGI in test [7], in test [8] and in test [9] were greater than 100 µM, 85.4 µM and greater than 100 µM, respectively.

With `CC1=CC(=O)N(c2c(C)cccc2Cl)C(C)N1` (stereo not given), the TGI in [1], in test [2], in [3], in test [4], in test [5] and in test [6] was greater than 100 µM in each case. The TGI in [7], in test [8] and in test [9] was greater than 100 µM each time.

For the compound `COC1=C2CC(C)CC(OC)C(O)C(C)/C=C(\C)C(OC(N)=O)C(OC)/C=C\C=C(/C)C(=O)NC(=C(/C=N/N3CCCCC3)C1=O)C2=O` (stereo not given), the TGI amounted to 46.7 µM in test [1]; 28.6 µM in test [2]; 15.5 µM in test [3]; 55.7 µM in test [4]; 44.5 µM in test [5]; 34.5 µM in [6]. Further, the TGI in test [7] was 34.5 µM; in test [8] it was 9.48 µM; in test [9], 37 µM.

Consider `O=S(=O)(C/C(=N\O)c1ccccc1)c1ccccc1`, for which the TGI in test [1], in [2], in test [3], in test [4], in [5] and in test [6] was greater than 100 µM in each case. The TGI in test [7], in test [8] and in [9] was greater than 100 µM each time.

In the case of `COc1ccc2nc(NC(=O)C(=O)C(C#N)c3ccc(Cl)c(Cl)c3)sc2c1` (stereo not given), the TGI in [1], in [2], in test [3], in [4], in [5] and in test [6] was greater than 100 µM each time. For the same compound, the TGI in test [7], in test [8] and in [9] was greater than 100 µM each time.

Consider `O=C(O)CCSC(=O)Nc1ccc(N=Nc2ccccc2)cc1`, for which the TGI in [1], in test [2], in test [3], in test [4], in test [5] and in [6] was greater than 100 µM in each case. In addition, the TGI in test [7], in test [8] and in [9] was greater than 100 µM in each case.

As for `O=C(O)/C=C/C(=O)N1C/C(=C\c2ccccc2)C(=O)/C(=C/c2ccccc2)C1`, the TGI was determined as 52 µM in test [1]; 20.6 µM in test [2]; 15.5 µM in test [3]; 42.7 µM in [4]; 41.7 µM in test [5]; 31.3 µM in [6]. For the same compound, the figures for the TGI in [7], in [8] and in test [9] were 31.8 µM, 3.48 µM and 15.9 µM, respectively.

In the case of `COc1ccc(Nc2c3ccccc3nc3[nH]c4ccccc4c23)cc1`, the GI50 in test [1] was 8.49 µM; in test [2], 8.33 µM; in [3], 18.5 µM; in [5], 8.71 µM; in test [6], 7.65 µM; in test [7], 26.7 µM. Besides, the GI50 in test [8] is 4.83 µM; in test [10] it was 8.92 µM; in [9], 18.5 µM. Further, the TGI in test [1] is greater than 50 µM; in [2] it was greater than 50 µM; in test [3], greater than 50 µM; in test [5] it was 23.2 µM; in test [6], greater than 50 µM; in test [7], greater than 50 µM. In addition, the TGI in test [8] is 28 µM; in test [10] it was greater than 50 µM; in test [9], greater than 50 µM.
